This note sets out measurements from ChEMBL document CHEMBL1132189, “Three-dimensional quantitative structure-activity relationship analyses using comparative molecular field analysis and comparative molecular similarity indices analysis to elucidate selectivity differences of inhibitors binding to trypsin, thrombin, and factor Xa” (J Med Chem, 1999).

pKi: −log10 of the molar value.

One assay concerns the target Prothrombin (Bos taurus, UniProt P00735). Description: Binding affinity towards thrombin.
The next assay has as its target T1, Serine protease 1 (Bos taurus, UniProt P00760).
T1 sequence (P00760 whole entry): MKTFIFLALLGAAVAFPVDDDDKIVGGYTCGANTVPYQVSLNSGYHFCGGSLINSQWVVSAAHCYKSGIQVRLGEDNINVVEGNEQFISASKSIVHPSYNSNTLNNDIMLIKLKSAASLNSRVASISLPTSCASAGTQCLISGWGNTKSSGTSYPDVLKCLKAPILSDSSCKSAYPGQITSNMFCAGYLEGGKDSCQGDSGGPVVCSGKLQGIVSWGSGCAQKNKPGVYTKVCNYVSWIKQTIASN
Description: Binding affinity towards trypsin.

For the next assay, the target named is Coagulation factor X (Homo sapiens, UniProt P00742). Description: Binding affinity towards Coagulation factor Xa.
Chain of Coagulation factor X (P00742 41-179 limits assumed): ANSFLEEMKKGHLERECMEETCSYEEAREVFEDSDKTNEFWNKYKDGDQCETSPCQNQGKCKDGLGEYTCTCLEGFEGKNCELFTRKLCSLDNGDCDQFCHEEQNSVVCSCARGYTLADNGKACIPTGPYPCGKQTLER
Chain of Coagulation factor X (P00742 235-488 limits assumed): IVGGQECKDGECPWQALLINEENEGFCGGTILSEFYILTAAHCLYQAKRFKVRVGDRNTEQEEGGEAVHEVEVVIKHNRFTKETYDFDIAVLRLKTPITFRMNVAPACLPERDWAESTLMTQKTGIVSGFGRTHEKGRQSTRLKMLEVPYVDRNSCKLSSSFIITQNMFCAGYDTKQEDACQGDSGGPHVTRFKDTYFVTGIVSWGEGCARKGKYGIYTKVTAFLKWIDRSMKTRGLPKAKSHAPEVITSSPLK

As for `CNC(=O)[C@H]1CCCCN1C(=O)[C@H](Cc1cccc(C(=N)N)c1)NS(=O)(=O)c1ccc2ccccc2c1`, the pKi at Prothrombin is 5.64; on Serine protease 1 it was 5.10; on Coagulation factor X, 4.24.

On to `CC1CCN(C(=O)[C@H](Cc2cccc(C(=N)N)c2)NC(=O)OC(C)(C)C)CC1`, for which the values for the pKi on Prothrombin, on Serine protease 1 and at Coagulation factor X were 5.92, 4.85 and 4.19, respectively.

For the molecule `CNC(=O)[C@H](Cc1cccc(C(=N)N)c1)NS(=O)(=O)c1ccc(C)cc1`, the pKi at Prothrombin was 4.75; on Serine protease 1, 4.34; at Coagulation factor X it was 4.40.

As to `CC1CCN(C(=O)[C@H](Cc2cccc(C(=N)N)c2)NS(=O)(=O)c2ccc3c(c2)C(=O)c2ccccc2C3=O)CC1`, the pKi is 7.58 at Prothrombin, 7.13 at Serine protease 1 and 5.64 at Coagulation factor X.

As to `COC(=O)[C@H]1[C@@H](C)CCCN1C(=O)[C@H](Cc1cccc(C(=N)N)c1)NS(=O)(=O)c1ccc2ccccc2c1`, the pKi at Prothrombin was 6.28; on Serine protease 1 it was 5.75; on Coagulation factor X, 4.44.

On to `Cc1ccc(S(=O)(=O)N[C@@H](Cc2cccc(C(=N)N)c2)C(=O)N2CCCC2)cc1`, for which the pKi on Prothrombin was 6.46; at Serine protease 1 it was 5.66; on Coagulation factor X, 4.12.

With `COC(=O)C1CCN(C(=O)[C@H](Cc2cccc(C(=N)N)c2)NS(=O)(=O)c2c(C)cc(C)cc2C)CC1`, the pKi on Prothrombin was 6.75; at Serine protease 1, 6.00; on Coagulation factor X, 4.08.

In the case of `N=C(N)c1cccc(C[C@H](NS(=O)(=O)c2ccc3ccccc3c2)C(=O)N2CCC[C@H]2C(=O)OCc2ccccc2)c1`, the pKi on Prothrombin is 6.20; at Serine protease 1 it was 6.00; at Coagulation factor X, 4.70.

`CNC(=O)[C@H](Cc1cccc(C(=N)N)c1)NS(=O)(=O)c1ccc2ccccc2c1`: the figures for the pKi at Prothrombin, at Serine protease 1 and on Coagulation factor X were 5.24, 4.60 and 4.58, respectively.

Take `CC(C)c1cc(C(C)C)c(S(=O)(=O)N[C@@H](Cc2cccc(C(=N)N)c2)C(=O)N2CCC[C@H](C(=O)OCc3ccccc3)C2)c(C(C)C)c1`: the figures for the pKi on Prothrombin, at Serine protease 1 and on Coagulation factor X were 6.05, 6.07 and 6.05, respectively.

In the case of `CNC(=O)[C@H]1CCCN(C(=O)[C@H](Cc2cccc(C(=N)N)c2)NS(=O)(=O)c2ccc3ccccc3c2)C1`, the results for the pKi on Prothrombin, on Serine protease 1 and at Coagulation factor X were 6.58, 6.51 and 4.48, respectively.

Consider `Cc1c(C)c(S(=O)(=O)N[C@@H](Cc2cccc(C(=N)N)c2)C(=O)N2CCN(S(C)(=O)=O)CC2)c(C)c2c1OC(C)(C)CC2`, for which the pKi on Prothrombin is 8.13; on Serine protease 1, 6.12; on Coagulation factor X it was 4.13.

For the molecule `N=C(N)c1cccc(C[C@H](NS(=O)(=O)c2ccc3ccccc3c2)C(=O)N2CCOCC2)c1`, the pKi is 7.38 on Prothrombin, 6.68 on Serine protease 1 and 4.80 at Coagulation factor X.

Regarding `N=C(N)c1cccc(C[C@H](NS(=O)(=O)c2ccc3ccccc3c2)C(=O)N2Cc3ccccc3C[C@@H]2C(=O)O)c1`, the pKi at Prothrombin was 7.75; on Serine protease 1, 6.89; on Coagulation factor X, 4.38.

Consider `N=C(N)c1cccc(C[C@H](NS(=O)(=O)c2ccc3ccccc3c2)C(=O)N2Cc3ccccc3C=C2C(=O)O)c1`, for which the pKi at Prothrombin was 6.92; on Serine protease 1, 5.35; on Coagulation factor X, 4.27.

Regarding `N=C(N)c1cccc(C[C@H](NS(=O)(=O)c2cccc3ccccc23)C(=O)N2CCCCC2)c1`, the pKi on Prothrombin is 6.64; on Serine protease 1, 6.21; on Coagulation factor X, 4.77.

Regarding `COc1cc(C)c(S(=O)(=O)N[C@@H](Cc2cccc(C(=N)N)c2)C(=O)N2CCC(C)CC2)c(C)c1C`, the pKi at Prothrombin was 7.05; on Serine protease 1, 6.11; at Coagulation factor X it was 4.00.

Take `N=C(N)c1cccc(C[C@H](NS(=O)(=O)c2ccc3ccccc3c2)C(=O)N2CCN(C(=O)CO)CC2)c1`: the pKi was 7.24 at Prothrombin, 5.96 at Serine protease 1 and 4.46 at Coagulation factor X.

In the case of `Cc1ccc(S(=O)(=O)N[C@@H](Cc2cccc(C(=N)N)c2)C(=O)N2CCC(C)CC2)cc1`, the pKi at Prothrombin was 7.58; on Serine protease 1 it was 6.28; at Coagulation factor X, 4.15.

For the molecule `COC(=O)[C@@H]1CCCN1C(=O)[C@H](Cc1cccc(C(=N)N)c1)NS(=O)(=O)c1ccc2ccccc2c1`, the pKi was 6.18 at Prothrombin, 5.09 on Serine protease 1 and 3.96 at Coagulation factor X.

Regarding `CC(C)c1cc(C(C)C)c(S(=O)(=O)N[C@@H](Cc2cccc(C(=N)N)c2)C(=O)N2CCN(S(C)(=O)=O)CC2)c(C(C)C)c1`, the results for the pKi at Prothrombin, on Serine protease 1 and at Coagulation factor X were 6.55, 6.01 and 5.13, respectively.

For `N=C(N)c1cccc(C[C@H](NS(=O)(=O)c2ccc3ccccc3c2)C(=O)N2CCCCCCC2)c1`, the pKi at Prothrombin is 7.52; at Serine protease 1 it was 6.21; at Coagulation factor X, 4.66.
